We go through 12 compounds from US9499550B2 (BRISTOL-MYERS SQUIBB COMPANY, priority 2012, dated 2016).

A word on the EC50: it is the concentration that produces a half-maximal response.

Where two headings read alike, the source gives them in different places. Where only a bound is given, the exact number is not on record here.

In assay [1] the test system is HCV genotype 1a (H77 strain) replicon in HUH-7 cells. The assay is described as follows: HCV replicon luciferase reporter assay, genotype 1a. Format: cell-based. Particulars: Hepatitis C virus, Huh-7, 72 h, HCV genotype 1a replicon luciferase, 3 days incubation. In outline: (§1)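 Replicon inhibition for both genotypes was measured as Renilla luciferase signal (EnduRen, 7.5 μM final, 2 h) after 3-day, 37° C exposure of replicon-bearing HUH-7 cells in 4% FCS DMEM, 0.5% DMSO. The 1b construct carries S1179I; the 1a H77 construct carries P1496L and S2204I. Twenty-point, 3-fold dilutions were fitted four-parametrically for EC50, and CC50 was taken from multiplexed Cell Titer-Blue.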
Background: A replicon is a self-replicating genome or part of one, used to study replication in cells.

Assay [2] concerns HCV genotype 1b (Con1) replicon in HUH-7 cells. Nature of the assay: HCV replicon luciferase reporter assay, genotype 1b. Particulars: Hepatitis C virus, Huh-7, 72 h, HCV genotype 1b replicon luciferase, 3 days incubation. Format: cell-based. In a few lines: as §1

As to `CCCOc1cnc(O[C@@H]2C[C@H]3C(=O)N[C@]4(C(=O)NS(=O)(=O)C5(C)CC5)C[C@H]4/C=C\CC[C@@H](C)C[C@@H](C)[C@H](NC(=O)NC(C)(C)C(F)(F)F)C(=O)N3C2)c2ccccc12` [Compound 5087, (2R,6S,7R,9R,13aS,14aR,16aS,Z)-7,9-dimethyl-N-((1-methylcyclopropyl)sulfonyl)-5,16-dioxo-2-((4-propoxyisoquinolin-1-yl)oxy)-6-(3-(1,1,1-trifluoro-2-methylpropan-2-yl)ureido)-1,2,3,5,6,7,8,9,10,11,13a,14,14a,15,16,16a-hexadecahydrocyclopropa[e]pyrrolo[1,2-a][1,4]diazacyclopentadecine-14a-carboxamide], the EC50 is under 5.46 nM in assay [1] (read-out: LE_1a (EC50, range)) and under 5.46 nM in assay [2] (read-out: LE_1b (EC50, range)).

With `CCCOc1cnc(O[C@@H]2C[C@H]3C(=O)N[C@]4(C(=O)NS(=O)(=O)C5CC5)C[C@H]4/C=C\CC[C@H](C)C[C@@H](C)[C@H](NC(=O)OC(C)(C)C)C(=O)N3C2)c2ccccc12` [Compound 5088, tert-butyl ((2R,6S,7R,9S,13aS,14aR,16aS,Z)-14a-((cyclopropylsulfonyl)carbamoyl)-7,9-dimethyl-5,16-dioxo-2-((4-propoxyisoquinolin-1-yl)oxy)-1,2,3,5,6,7,8,9,10,11,13a,14,14a,15,16,16a-hexadecahydrocyclopropa[e]pyrrolo[1,2-a][1,4]diazacyclopentadecin-6-yl)carbamate], the EC50 in assay [1] (read-out: LE_1a (EC50)) was 103 nM; in assay [1] (read-out: LE_1a (EC50, range)), over 87.4 nM; in assay [2] (read-out: LE_1b (EC50)), 20.3 nM; in assay [2] (read-out: LE_1b (EC50, range)) it was 4.82 to 103 nM.

`CCCOc1cnc(O[C@@H]2C[C@H]3C(=O)N[C@]4(C(=O)NS(=O)(=O)C5CC5)C[C@H]4/C=C\CC[C@@H](C)C[C@@H](C)[C@H](NC(=O)OC(C)(C)C)C(=O)N3C2)c2ccccc12` [Compound 5089, tert-butyl ((2R,6S,7R,9R,13aS,14aR,16aS,Z)-14a-((cyclopropylsulfonyl)carbamoyl)-7,9-dimethyl-5,16-dioxo-2-((4-propoxyisoquinolin-1-yl)oxy)-1,2,3,5,6,7,8,9,10,11,13a,14,14a,15,16,16a-hexadecahydrocyclopropa[e]pyrrolo[1,2-a][1,4]diazacyclopentadecin-6-yl)carbamate]: the EC50 in assay [1] (read-out: LE_1a (EC50, range)) was under 5.46 nM; in assay [2] (read-out: LE_1b (EC50, range)), under 5.46 nM.

`CCCOc1cnc(O[C@@H]2C[C@H]3C(=O)N[C@]4(C(=O)NS(=O)(=O)C5CC5)C[C@H]4/C=C\CC[C@H](C)C[C@@H](C)[C@H](NC(=O)OC(C)(C)C(F)(F)F)C(=O)N3C2)c2ccccc12` [Compound 5090, 1,1,1-trifluoro-2-methylpropan-2-yl((2R,6S,7R,9S,13aS,14aR,16aS,Z)-14a-((cyclopropylsulfonyl)carbamoyl)-7,9-dimethyl-5,16-dioxo-2-((4-propoxyisoquinolin-1-yl)oxy)-1,2,3,5,6,7,8,9,10,11,13a,14,14a,15,16,16a-hexadecahydrocyclopropa[e]pyrrolo[1,2-a][1,4]diazacyclopentadecin-6-yl)carbamate]: the EC50 is 522 nM in assay [1] (read-out: LE_1a (EC50)); over 87.4 nM in assay [1] (read-out: LE_1a (EC50, range)); 87.4 nM in assay [2] (read-out: LE_1b (EC50)); 4.82 to 103 nM in assay [2] (read-out: LE_1b (EC50, range)).

Take `CCCOc1cnc(O[C@@H]2C[C@H]3C(=O)N[C@]4(C(=O)NS(=O)(=O)C5CC5)C[C@H]4/C=C\CC[C@H](C)C[C@@H](C)[C@H](NC(=O)O[C@@H]4C[C@@H]5C[C@@H]5C4)C(=O)N3C2)c2ccccc12` [Compound 5092, (1R,3r,5S)-bicyclo[3.1.0]hexan-3-yl((2R,6S,7R,9S,13aS,14aR,16aS,Z)-14a-((cyclopropylsulfonyl)carbamoyl)-7,9-dimethyl-5,16-dioxo-2-((4-propoxyisoquinolin-1-yl)oxy)-1,2,3,5,6,7,8,9,10,11,13a,14,14a,15,16,16a-hexadecahydrocyclopropa[e]pyrrolo[1,2-a][1,4]diazacyclopentadecin-6-yl)carbamate]: the EC50 in assay [1] (read-out: LE_1a (EC50, range)) was over 87.4 nM; in assay [2] (read-out: LE_1b (EC50, range)) it was 4.82 to 103 nM.

For the compound `CCCOc1cnc(O[C@@H]2C[C@H]3C(=O)N[C@]4(C(=O)NS(=O)(=O)C5CC5)C[C@H]4/C=C\CC[C@@H](C)C[C@@H](C)[C@H](NC(=O)O[C@@H]4C[C@@H]5C[C@@H]5C4)C(=O)N3C2)c2ccccc12` [Compound 5093, (1R,3r,5S)-bicyclo[3.1.0]hexan-3-yl((2R,6S,7R,9R,13aS,14aR,16aS,Z)-14a-((cyclopropylsulfonyl)carbamoyl)-7,9-dimethyl-5,16-dioxo-2-((4-propoxyisoquinolin-1-yl)oxy)-1,2,3,5,6,7,8,9,10,11,13a,14,14a,15,16,16a-hexadecahydrocyclopropa[e]pyrrolo[1,2-a][1,4]diazacyclopentadecin-6-yl)carbamate], the EC50 in assay [1] (read-out: LE_1a (EC50, range)) is 4.82 to 103 nM; in assay [2] (read-out: LE_1b (EC50, range)), under 5.46 nM.

For the compound `CCCOc1cnc(O[C@@H]2C[C@H]3C(=O)N[C@]4(C(=O)NS(=O)(=O)C5CC5)C[C@H]4/C=C\CC[C@H](C)C[C@@H](C)[C@H](NC(=O)O[C@H](C)C(F)(F)F)C(=O)N3C2)c2ccccc12` [Compound 5094, (R)-1,1,1-trifluoropropan-2-yl((2R,6S,7R,9S,13aS,14aR,16aS,Z)-14a-((cyclopropylsulfonyl)carbamoyl)-7,9-dimethyl-5,16-dioxo-2-((4-propoxyisoquinolin-1-yl)oxy)-1,2,3,5,6,7,8,9,10,11,13a,14,14a,15,16,16a-hexadecahydrocyclopropa[e]pyrrolo[1,2-a][1,4]diazacyclopentadecin-6-yl)carbamate], the EC50 in assay [1] (read-out: LE_1a (EC50, range)) is over 87.4 nM; in assay [2] (read-out: LE_1b (EC50, range)), over 87.4 nM.

In the case of `CCCOc1cnc(O[C@@H]2C[C@H]3C(=O)N[C@]4(C(=O)NS(=O)(=O)C5CC5)C[C@H]4/C=C\CC[C@@H](C)C[C@@H](C)[C@H](NC(=O)O[C@H](C)C(F)(F)F)C(=O)N3C2)c2ccccc12` [Compound 5095, (R)-1,1,1-trifluoropropan-2-yl((2R,6S,7R,9R,13aS,14aR,16aS,Z)-14a-((cyclopropylsulfonyl)carbamoyl)-7,9-dimethyl-5,16-dioxo-2-((4-propoxyisoquinolin-1-yl)oxy)-1,2,3,5,6,7,8,9,10,11,13a,14,14a,15,16,16a-hexadecahydrocyclopropa[e]pyrrolo[1,2-a][1,4]diazacyclopentadecin-6-yl)carbamate], the EC50 in assay [1] (read-out: LE_1a (EC50, range)) was 4.82 to 103 nM; in assay [2] (read-out: LE_1b (EC50, range)), 4.82 to 103 nM.

As for `CCCOc1cnc(O[C@@H]2C[C@H]3C(=O)N[C@]4(C(=O)NS(=O)(=O)C5CC5)C[C@H]4/C=C\CC[C@H](C)C[C@@H](C)[C@H](NC(=O)OCC4(C)CC4)C(=O)N3C2)c2ccccc12` [Compound 5096, (1-methylcyclopropyl)methyl ((2R,6S,7R,9S,13aS,14aR,16aS,Z)-14a-((cyclopropylsulfonyl)carbamoyl)-7,9-dimethyl-5,16-dioxo-2-((4-propoxyisoquinolin-1-yl)oxy)-1,2,3,5,6,7,8,9,10,11,13a,14,14a,15,16,16a-hexadecahydrocyclopropa[e]pyrrolo[1,2-a][1,4]diazacyclopentadecin-6-yl)carbamate], the EC50 is over 87.4 nM in assay [1] (read-out: LE_1a (EC50, range)) and 4.82 to 103 nM in assay [2] (read-out: LE_1b (EC50, range)).

Regarding `CCCOc1cnc(O[C@@H]2C[C@H]3C(=O)N[C@]4(C(=O)NS(=O)(=O)C5CC5)C[C@H]4/C=C\CC[C@@H](C)C[C@@H](C)[C@H](NC(=O)OCC4(C)CC4)C(=O)N3C2)c2ccccc12` [Compound 5097, (1-methylcyclopropyl)methyl ((2R,6S,7R,9R,13aS,14aR,16aS,Z)-14a-((cyclopropylsulfonyl)carbamoyl)-7,9-dimethyl-5,16-dioxo-2-((4-propoxyisoquinolin-1-yl)oxy)-1,2,3,5,6,7,8,9,10,11,13a,14,14a,15,16,16a-hexadecahydrocyclopropa[e]pyrrolo[1,2-a][1,4]diazacyclopentadecin-6-yl)carbamate], the EC50 was under 5.46 nM in assay [1] (read-out: LE_1a (EC50, range)) and under 5.46 nM in assay [2] (read-out: LE_1b (EC50, range)).

Regarding `CCCOc1cnc(O[C@@H]2C[C@H]3C(=O)N[C@]4(C(=O)NS(=O)(=O)C5CC5)C[C@H]4/C=C\CC[C@H](C)C[C@@H](C)[C@H](NC(=O)NC(C)(C)C(F)(F)F)C(=O)N3C2)c2ccccc12` [Compound 5098, (2R,6S,7R,9S,13aS,14aR,16aS,Z)—N-(cyclopropylsulfonyl)-7,9-dimethyl-5,16-dioxo-2-((4-propoxyisoquinolin-1-yl)oxy)-6-(3-(1,1,1-trifluoro-2-methylpropan-2-yl)ureido)-1,2,3,5,6,7,8,9,10,11,13a,14,14a,15,16,16a-hexadecahydrocyclopropa[e]pyrrolo[1,2-a][1,4]diazacyclopentadecine-14a-carboxamide], the EC50 in assay [1] (read-out: LE_1a (EC50, range)) was over 87.4 nM; in assay [2] (read-out: LE_1b (EC50, range)) it was over 87.4 nM.

Regarding `CCCOc1cnc(O[C@@H]2C[C@H]3C(=O)N[C@]4(C(=O)NS(=O)(=O)C5CC5)C[C@H]4/C=C\CC[C@@H](C)C[C@@H](C)[C@H](NC(=O)NC(C)(C)C(F)(F)F)C(=O)N3C2)c2ccccc12` [Compound 5099, (2R,6S,7R,9R,13aS,14aR,16aS,Z)—N-(cyclopropylsulfonyl)-7,9-dimethyl-5,16-dioxo-2-((4-propoxyisoquinolin-1-yl)oxy)-6-(3-(1,1,1-trifluoro-2-methylpropan-2-yl)ureido)-1,2,3,5,6,7,8,9,10,11,13a,14,14a,15,16,16a-hexadecahydrocyclopropa[e]pyrrolo[1,2-a][1,4]diazacyclopentadecine-14a-carboxamide], the EC50 in assay [1] (read-out: LE_1a (EC50, range)) is under 5.46 nM; in assay [2] (read-out: LE_1b (EC50, range)), under 5.46 nM.
